The values below come from the supplement of paper PMC11368000.

The test system of the first assay is 1535 (donor line of iPSC-derived cardiomyocytes). Put plainly: POD (EC10) for decrease in total cell number (cytotoxicity) vs vehicle; higher = less potent (higher point of departure). The settings on record: exposure time: 90 min. The gist of the method:
(§1)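 In 384-well plates, cardiomyocytes made from iPSCs of 16 human donors were cultured for 14 days before a 90 min, 37 °C exposure to final concentrations of 0.1, 1, 10 and 100 µM with 0.5% DMSO. Per-field nuclear counts from MetaXpress, normalised to vehicle, were fitted with hierarchical Bayesian Hill models using a 10% decrease. These fits yielded a cytotoxicity point of departure for each donor.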
`O=S(=O)(O)C(F)(F)C(F)(F)C(F)(F)C(F)(F)C(F)(F)C(F)(F)C(F)(F)C(F)(F)F` [Perfluorooctanesulfonic_acid] showed a POD vs vehicle greater than 100 µM.

`O=C(O)C(F)(F)C(F)(F)C(F)(F)C(F)(F)C(F)(F)C(F)(F)C(F)(F)F` [Perfluorooctanoic_acid] showed a POD vs vehicle greater than 100 µM.

For `O=C(O)C(F)(F)C(F)(F)C(F)(F)C(F)(F)F` [Perfluoropentanoic_acid], the POD vs vehicle was greater than 100 µM.

The compound `O=C(O)C(F)(F)C(F)(F)F` [Perfluoropropanoic_acid] had a POD vs vehicle greater than 100 µM.

For `O=C(O)C(F)(F)C(F)(F)C(F)(F)C(F)(F)C(F)(F)C(F)(F)C(F)(F)C(F)(F)C(F)(F)C(F)(F)F` [Perfluoroundecanoic_acid], the POD vs vehicle is greater than 100 µM.

The test system of a further assay is 1565 (donor line of iPSC-derived cardiomyocytes). The description is as above. The settings on record: exposure time: 90 min. Summed up: as §1
Regarding `O=S(=O)(O)C(F)(F)C(F)(F)C(F)(F)C(F)(F)C(F)(F)C(F)(F)C(F)(F)C(F)(F)F` [Perfluorooctanesulfonic_acid], the POD vs vehicle was greater than 100 µM.

The compound `O=C(O)C(F)(F)C(F)(F)C(F)(F)C(F)(F)C(F)(F)C(F)(F)C(F)(F)F` [Perfluorooctanoic_acid] came in with a POD vs vehicle greater than 100 µM.

`O=C(O)C(F)(F)C(F)(F)C(F)(F)C(F)(F)F` [Perfluoropentanoic_acid] returned a POD vs vehicle greater than 100 µM.

Consider `O=C(O)C(F)(F)C(F)(F)F` [Perfluoropropanoic_acid], for which the POD vs vehicle was greater than 100 µM.

Turning to `O=C(O)C(F)(F)C(F)(F)C(F)(F)C(F)(F)C(F)(F)C(F)(F)C(F)(F)C(F)(F)C(F)(F)C(F)(F)F` [Perfluoroundecanoic_acid], the POD vs vehicle was greater than 100 µM.

The next assay deals with 20032 (donor line of iPSC-derived cardiomyocytes). Described as above. The settings on record: exposure time: 90 min. The gist of the method: as §1
As to `O=S(=O)(O)C(F)(F)C(F)(F)C(F)(F)C(F)(F)C(F)(F)C(F)(F)C(F)(F)C(F)(F)F` [Perfluorooctanesulfonic_acid], the POD vs vehicle was greater than 100 µM.

The compound `O=C(O)C(F)(F)C(F)(F)C(F)(F)C(F)(F)C(F)(F)C(F)(F)C(F)(F)F` [Perfluorooctanoic_acid] yielded a POD vs vehicle greater than 100 µM.

`O=C(O)C(F)(F)C(F)(F)C(F)(F)C(F)(F)F` [Perfluoropentanoic_acid] showed a POD vs vehicle greater than 100 µM.

Turning to `O=C(O)C(F)(F)C(F)(F)F` [Perfluoropropanoic_acid], the POD vs vehicle was greater than 100 µM.

`O=C(O)C(F)(F)C(F)(F)C(F)(F)C(F)(F)C(F)(F)C(F)(F)C(F)(F)C(F)(F)C(F)(F)C(F)(F)F` [Perfluoroundecanoic_acid]: the POD vs vehicle was greater than 100 µM.

In the next assay the test system is 20084 (donor line of iPSC-derived cardiomyocytes). Described as above. The settings on record: exposure time: 90 min. Summed up: as §1
`O=S(=O)(O)C(F)(F)C(F)(F)C(F)(F)C(F)(F)C(F)(F)C(F)(F)C(F)(F)C(F)(F)F` [Perfluorooctanesulfonic_acid] registered a POD vs vehicle greater than 100 µM.

`O=C(O)C(F)(F)C(F)(F)C(F)(F)C(F)(F)C(F)(F)C(F)(F)C(F)(F)F` [Perfluorooctanoic_acid] had a POD vs vehicle greater than 100 µM.

For `O=C(O)C(F)(F)C(F)(F)C(F)(F)C(F)(F)F` [Perfluoropentanoic_acid], the POD vs vehicle was greater than 100 µM.

On to `O=C(O)C(F)(F)C(F)(F)F` [Perfluoropropanoic_acid], for which the POD vs vehicle is greater than 100 µM.

`O=C(O)C(F)(F)C(F)(F)C(F)(F)C(F)(F)C(F)(F)C(F)(F)C(F)(F)C(F)(F)C(F)(F)C(F)(F)F` [Perfluoroundecanoic_acid] displayed a POD vs vehicle greater than 100 µM.

In a further assay the test system is 30145 (donor line of iPSC-derived cardiomyocytes). Described as above. The settings on record: exposure time: 90 min. Summed up:
as §1
As to `O=S(=O)(O)C(F)(F)C(F)(F)C(F)(F)C(F)(F)C(F)(F)C(F)(F)C(F)(F)C(F)(F)F` [Perfluorooctanesulfonic_acid], the POD vs vehicle is greater than 100 µM.

Regarding `O=C(O)C(F)(F)C(F)(F)C(F)(F)C(F)(F)C(F)(F)C(F)(F)C(F)(F)F` [Perfluorooctanoic_acid], the POD vs vehicle was greater than 100 µM.

Turning to `O=C(O)C(F)(F)C(F)(F)C(F)(F)C(F)(F)F` [Perfluoropentanoic_acid], the POD vs vehicle was greater than 100 µM.

`O=C(O)C(F)(F)C(F)(F)F` [Perfluoropropanoic_acid] gave a POD vs vehicle greater than 100 µM.

`O=C(O)C(F)(F)C(F)(F)C(F)(F)C(F)(F)C(F)(F)C(F)(F)C(F)(F)C(F)(F)C(F)(F)C(F)(F)F` [Perfluoroundecanoic_acid] displayed a POD vs vehicle greater than 100 µM.

The next assay concerns 30171 (donor line of iPSC-derived cardiomyocytes). The description is as above. The settings on record: exposure time: 90 min. The gist of the method:
as §1
The compound `O=S(=O)(O)C(F)(F)C(F)(F)C(F)(F)C(F)(F)C(F)(F)C(F)(F)C(F)(F)C(F)(F)F` [Perfluorooctanesulfonic_acid] had a POD vs vehicle greater than 100 µM.

`O=C(O)C(F)(F)C(F)(F)C(F)(F)C(F)(F)C(F)(F)C(F)(F)C(F)(F)F` [Perfluorooctanoic_acid]: the POD vs vehicle is greater than 100 µM.

`O=C(O)C(F)(F)C(F)(F)C(F)(F)C(F)(F)F` [Perfluoropentanoic_acid] came in with a POD vs vehicle greater than 100 µM.

As for `O=C(O)C(F)(F)C(F)(F)F` [Perfluoropropanoic_acid], the POD vs vehicle was greater than 100 µM.

For `O=C(O)C(F)(F)C(F)(F)C(F)(F)C(F)(F)C(F)(F)C(F)(F)C(F)(F)C(F)(F)C(F)(F)C(F)(F)F` [Perfluoroundecanoic_acid], the POD vs vehicle was greater than 100 µM.

Another assay concerns 30145. Put plainly: POD (EC05) for increase in beat frequency (positive chronotrope) vs vehicle; higher = less potent (higher point of departure). The settings on record: exposure time: 90 min. The gist of the method: (§2)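 A FLIPR Tetra recorded Ca2+ flux in dye-loaded human iPSC-derived cardiomyocytes from 16 donors before and after 90 min at 37 °C with 0.1, 1, 10 and 100 µM (final concentrations, 0.5% DMSO). Vehicle-normalised beat frequency, decay-to-rise ratio or peak frequency were fitted with hierarchical Bayesian Hill models to give donor-specific points of departure. The threshold was a 5% change, or for peak frequency a 95% loss.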
With `O=S(=O)(O)C(F)(F)C(F)(F)C(F)(F)C(F)(F)C(F)(F)C(F)(F)C(F)(F)C(F)(F)F` [Perfluorooctanesulfonic_acid], the POD vs vehicle is greater than 100 µM.

Compound `O=C(O)C(F)(F)C(F)(F)C(F)(F)C(F)(F)C(F)(F)C(F)(F)C(F)(F)F` [Perfluorooctanoic_acid] returned a POD vs vehicle greater than 100 µM.

Turning to `O=C(O)C(F)(F)C(F)(F)C(F)(F)C(F)(F)F` [Perfluoropentanoic_acid], the POD vs vehicle was greater than 100 µM.

Take `O=C(O)C(F)(F)C(F)(F)F` [Perfluoropropanoic_acid]: the POD vs vehicle was greater than 100 µM.

On to `O=C(O)C(F)(F)C(F)(F)C(F)(F)C(F)(F)C(F)(F)C(F)(F)C(F)(F)C(F)(F)C(F)(F)C(F)(F)F` [Perfluoroundecanoic_acid], for which the POD vs vehicle was greater than 100 µM.

The next assay concerns 1516 (donor line of iPSC-derived cardiomyocytes). Put plainly: POD (EC05) for increase in Ca2+ transient decay-to-rise ratio (QT prolongation) vs vehicle; higher = less potent (higher point of departure). The following applies: exposure time: 90 min. The gist of the method:
as §2
Take `O=S(=O)(O)C(F)(F)C(F)(F)C(F)(F)C(F)(F)C(F)(F)C(F)(F)C(F)(F)C(F)(F)F` [Perfluorooctanesulfonic_acid]: the POD vs vehicle is greater than 100 µM.

Consider `O=C(O)C(F)(F)C(F)(F)C(F)(F)C(F)(F)C(F)(F)C(F)(F)C(F)(F)F` [Perfluorooctanoic_acid], for which the POD vs vehicle is greater than 100 µM.

As for `O=C(O)C(F)(F)C(F)(F)C(F)(F)C(F)(F)F` [Perfluoropentanoic_acid], the POD vs vehicle was greater than 100 µM.

With `O=C(O)C(F)(F)C(F)(F)F` [Perfluoropropanoic_acid], the POD vs vehicle is greater than 100 µM.

Take `O=C(O)C(F)(F)C(F)(F)C(F)(F)C(F)(F)C(F)(F)C(F)(F)C(F)(F)C(F)(F)C(F)(F)C(F)(F)F` [Perfluoroundecanoic_acid]: the POD vs vehicle was greater than 100 µM.

For another assay, the system named is 1518 (donor line of iPSC-derived cardiomyocytes). The assay is described as above. The settings on record: exposure time: 90 min. Summed up: as §2
With `O=S(=O)(O)C(F)(F)C(F)(F)C(F)(F)C(F)(F)C(F)(F)C(F)(F)C(F)(F)C(F)(F)F` [Perfluorooctanesulfonic_acid], the POD vs vehicle is greater than 100 µM.

Regarding `O=C(O)C(F)(F)C(F)(F)C(F)(F)C(F)(F)C(F)(F)C(F)(F)C(F)(F)F` [Perfluorooctanoic_acid], the POD vs vehicle is greater than 100 µM.

On to `O=C(O)C(F)(F)C(F)(F)C(F)(F)C(F)(F)F` [Perfluoropentanoic_acid], for which the POD vs vehicle was greater than 100 µM.

Turning to `O=C(O)C(F)(F)C(F)(F)F` [Perfluoropropanoic_acid], the POD vs vehicle was greater than 100 µM.

For `O=C(O)C(F)(F)C(F)(F)C(F)(F)C(F)(F)C(F)(F)C(F)(F)C(F)(F)C(F)(F)C(F)(F)C(F)(F)F` [Perfluoroundecanoic_acid], the POD vs vehicle was found to be 17.4 µM.

In a further assay the test system is 1531 (donor line of iPSC-derived cardiomyocytes). The assay is described as above. The following applies: exposure time: 90 min. The gist of the method:
as §2
`O=S(=O)(O)C(F)(F)C(F)(F)C(F)(F)C(F)(F)C(F)(F)C(F)(F)C(F)(F)C(F)(F)F` [Perfluorooctanesulfonic_acid]: the POD vs vehicle is greater than 100 µM.

Turning to `O=C(O)C(F)(F)C(F)(F)C(F)(F)C(F)(F)C(F)(F)C(F)(F)C(F)(F)F` [Perfluorooctanoic_acid], the POD vs vehicle is greater than 100 µM.

Regarding `O=C(O)C(F)(F)C(F)(F)C(F)(F)C(F)(F)F` [Perfluoropentanoic_acid], the POD vs vehicle is greater than 100 µM.

For the compound `O=C(O)C(F)(F)C(F)(F)F` [Perfluoropropanoic_acid], the POD vs vehicle worked out at 0.307 µM.

Regarding `O=C(O)C(F)(F)C(F)(F)C(F)(F)C(F)(F)C(F)(F)C(F)(F)C(F)(F)C(F)(F)C(F)(F)C(F)(F)F` [Perfluoroundecanoic_acid], the POD vs vehicle was greater than 100 µM.
